Here are results for 31 molecules from patent publication US8178530B2, “Imidazolopyrazine compounds useful for the treatment of degenerative and inflammatory diseases” (Janssen Pharmaceutica NV, priority 2006, dated 2012).

In test [1] the target is T1, MAPKAPK5 (Homo sapiens, UniProt Q8IW41).
T1 construct: 1 mU MAPKAP-K5
T1 sequence (Q8IW41 1-473): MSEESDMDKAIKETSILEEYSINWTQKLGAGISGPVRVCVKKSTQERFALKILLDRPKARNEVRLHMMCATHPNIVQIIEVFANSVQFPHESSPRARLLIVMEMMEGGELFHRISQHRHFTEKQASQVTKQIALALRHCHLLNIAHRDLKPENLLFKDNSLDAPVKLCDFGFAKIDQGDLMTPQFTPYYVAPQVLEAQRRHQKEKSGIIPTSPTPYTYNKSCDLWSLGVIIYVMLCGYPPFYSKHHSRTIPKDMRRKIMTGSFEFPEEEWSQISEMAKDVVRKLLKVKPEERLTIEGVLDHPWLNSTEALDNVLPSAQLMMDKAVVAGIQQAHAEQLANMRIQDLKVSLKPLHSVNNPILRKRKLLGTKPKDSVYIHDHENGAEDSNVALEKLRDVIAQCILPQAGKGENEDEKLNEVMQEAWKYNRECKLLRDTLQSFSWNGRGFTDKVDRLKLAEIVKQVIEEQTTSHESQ
The test is described as follows: MAPKAP-K5 assay (FlashPlate, 33P-ATP). The format is biochemical. Particulars: 0.6 μM ATP, 30 minutes at room temperature. On the procedure:
3 μM MAPKAP-K5 peptide substrate

The subject of test [2] is MMP1 expression by SFs. Put plainly: 'MMP assay': MMP1 expression by 'complex trigger' activated synovial fibroblasts (MMP1 ELISA). The format is cell-based, human. To be noted: Homo sapiens, Fibroblast, RASFs, 48 hrs. Here is the method:
A 384-well format ELISA for measurement of MMP1 is developed. Various primary antibodies are tested, as well as various ELISA protocols. The following protocol is developed and validated to measure MMP1 levels in SF supernatant in 384 well plates: white Lumitrac 600 384 well plates (Greiner) are coated with 2 μg/mL anti-MMP1 antibody MAB1346 (Chemicon). The antibody is diluted in buffer 40 (1.21 g Tris base (Sigma), 0.58 g NaCl (Calbiochem) and 5 ml 10% NaN3 (Sigma) in 1 L milliQ water and adjusted to pH 8.5). After overnight incubation at 4° C., plates are washed with PBS (80 g NaCl, 2 g KCl (Sigma), 11.5 g Na2HPO4.7H2O and 2 g KH2PO4 in 10 L milliQ; pH 7.4) and blocked with 100 μL/well Casein buffer (2% Casein (VWR International) in PBS). Next day, casein buffer is removed from ELISA plates and replaced by 50 μL/well EC buffer (4 g casein, 2.13 g Na2HPO4 (Sigma), 2 g bovine albumin (Sigma), 0.69 g NaH2PO4.H2O (Sigma), 0.5 g CHAPS (Roche), 23.3 g NaCl, 4 mL 0.5 M EDTA pH 8 (Invitrogen), 5 mL 10% NaN3 in 1 L milliQ and adjusted to pH 7.0). 0.25 mM DTT (Sigma) is added to the thawed samples plates. After removal of the EC buffer, 20 μL of sample is transferred to the ELISA plates. After overnight incubation at 4° C. plates are washed twice with PBS and once with PBST (PBS with 0.05% Tween-20 (Sigma)) and incubated with 35 μL/well biotinylated anti-MMP1 antibody solution (R&D). This secondary antibody is diluted in buffer C (0.82 g NaH2PO4.H2O, 4.82 g Na2HPO4, 46.6 g NaCl, 20 g bovine albumin and 4 mL 0.5M EDTA pH 8 in 2 L milliQ and adjusted to pH 7.0) at a concentration of 5 μg/mL. After 2 h of incubation at RT, plates are washed as described above and incubated with 50 μL/well streptavidin-HRP conjugate (Biosource). Streptavidin-HRP conjugate is diluted in buffer C at a concentration of 0.25 μg/mL. After 45 min, plates are washed as described above and incubated for 5 min with 50 μL/well BM Chem ELISA Substrate (Roche). Readout is performed on the Luminoscan Ascent Luminometer (Labsystems) with an integration time of 200 msec or with an Envision reader (Perkin Elmer).
The increase of MMP1 expression by SFs upon treatment with cytokines relevant in the field of RA (TNF-α, IL1β and OSM) or a combination thereof is shown in FIG. 2 as white bars. For this experiment, SFs are seeded in 96 well plates, 3,000 cells/well. 24 h later, the medium is changed to M199 medium supplemented with 1% FBS. One day after the medium change, cytokines or combinations thereof are added to the cultures, each cytokine being added to a final concentration of 25 ng/mL. 72 h after cytokine addition, the supernatant is collected and processed in the MMP1 ELISA as described in the protocol given above. In parallel with this experiment, SFs are triggered, using the same protocol, with the supernatant of THP1 cells (2-fold diluted in M199+1% FBS) treated with the same cytokines or combinations of cytokines for 48 h in M199 medium+1% FBS. The induction of the MMP1 expression by SFs triggered with the supernatants of TNF-α-treated THP1 cells is stronger (>4.5 fold induction) as compared to the SFs triggered with recombinant TNF-α alone (3-fold induction) and almost equals the 5-fold induction obtained by a mixture of 3 purified cytokines (TNF-α, IL1βb, OSM). […] As the role of TNF-α in the RA pathogenesis is validated (TNF-α-blockers such as Infliximab and Etanercept show some efficacy in the treatment of RA patients) and the THP-1 cells are representative for monocytes/macrophages present in the joint of RA patients, the TNF-α-based trigger mixture prepared by contacting THP-1 cells with TNF-α will contain factors present in the joints of RA patients and subsequently is relevant to RA. This TNF-α-based complex trigger, further referred to as the ‘complex trigger’, will further be used as basis for the ‘MMP assay’.
Dexamethasone is shown to dose-dependently reduce amounts of MMP1 produced by complex trigger activated SFs. […]
Background: In an ELISA, binding on a coated surface is turned into a signal by an enzyme label.

Where only a bound is given, the exact number is not on record here.

As to `CCN(CC)CCNC(=O)c1ccc(Nc2ncc(-c3ccnn3C)n3ccnc23)cc1` [Compound 88], the IC50 in test [1] is over 1 µM. The EC50 in test [2] was over 1 µM.

With `Cc1cn2c(-c3cn[nH]c3)cnc(Nc3ccc(C(N)=O)cc3)c2n1` [Compound 92], the IC50 in test [1] was over 1 µM. Further, the EC50 in test [2] was over 1 µM.

Regarding `NC(=O)c1nc(-c2cnc(Nc3ccc(N4CCOCC4)cc3)c3nccn23)cs1` [Compound 164], the IC50 in test [1] is over 1 µM. In addition, in test [2], the EC50 was over 1 µM.

Consider `O=C(NCc1cccnc1)c1ccc(Nc2ncc(-c3cc[nH]c(=O)c3)n3ccnc23)cc1` [Compound 108, 4-[5-(2-Oxo-1,2-dihydropyridin-4-yl)imidazo[1,2-a]pyrazin-8-ylamino]-N-pyridin-3-ylmethyl benzamide], for which, in test [1], the IC50 lay within 0.501 to 1 µM. In test [2], the EC50 fell in the range of 0.101 to 0.5 µM.

On to `NC(=O)c1cnc(Nc2ccc(N3CCOCC3)cc2)c2nccn12` [Compound 66], for which, in test [1], the half-inhibitory concentration (IC50) was over 1 µM. Also, the EC50 in test [2] is over 1 µM.

`CCN(CC)c1ccc(Nc2ncc(-c3cn[nH]c3)n3ccnc23)cc1` [Compound 9] displayed an IC50 in test [1] of 0.501 to 1 µM. Besides, the EC50 in test [2] was over 1 µM.

Take `NC(=O)c1cc(-c2cnc(Nc3ccc(NC(=O)c4ccccc4)nc3)c3nccn23)cs1` [Compound 195]: in test [1], the half-maximal inhibitory concentration (IC50) was over 1 µM. Besides, the EC50 in test [2] is over 1 µM.

`O=C1NCc2cc(-c3cnc(Nc4ccccc4)c4nccn34)ccc21` [Compound 213]: in test [1], the half-maximal inhibitory concentration (IC50) fell in the range of 0.101 to 0.5 µM. In test [2], the EC50 fell in the range of 0.101 to 0.5 µM.

`CN1CCN(c2ccc(Nc3ncc(-c4ccnc(N)c4)n4ccnc34)cc2)CC1` [Compound 132, [5-(2-Amino-pyridin-4-yl)-imidazo[1,2-a]pyrazin-8-yl]-[4-(4-methyl-piperazin-1-yl)-phenyl]-amine] showed an IC50 in test [1] of over 1 µM. The EC50 in test [2] was over 1 µM.

On to `Cc1cc(Nc2ncc(-c3cn[nH]c3)n3ccnc23)ccc1C(N)=O` [Compound 33], for which the 50% inhibitory concentration (IC50) in test [1] was over 1 µM. For the same molecule, in test [2], the EC50 is over 1 µM.

For `Fc1ccc(Nc2ncc(-c3cn[nH]c3)n3ccnc23)cc1Cl` [Compound 17], in test [1], the IC50 was over 1 µM. Besides, in test [2], the EC50 was over 1 µM.

In test [1], `CCN(CC)CCNC(=O)c1ccc(Nc2ncc(-c3ccncc3)n3ccnc23)cc1` [Compound 86] came in with a concentration for half-maximal inhibition (IC50) of over 1 µM. Moreover, the EC50 in test [2] is over 1 µM.

The molecule `NC(=O)c1ccc(-c2cnc(Nc3ccc(-n4ccc(C(F)(F)F)n4)cc3)c3nccn23)cc1` [Compound 133] showed an IC50 in test [1] of over 1 µM. Further, the EC50 in test [2] fell in the range of 0.101 to 0.5 µM.

With `Cc1cnc2c(Nc3ccc(N4CCOCC4)cc3)ncc(-c3cc[nH]c(=O)c3)n12` [Compound 135], the concentration for half-maximal inhibition (IC50) in test [1] is over 1 µM. For the same molecule, the EC50 in test [2] is over 1 µM.

In the case of `CCN(CC)CCNC(=O)c1ccc(Nc2ncc(-c3ccc(S(C)(=O)=O)cc3)n3ccnc23)cc1` [Compound 79], the half-inhibitory concentration (IC50) in test [1] is over 1 µM. In addition, in test [2], the 50% effective concentration (EC50) is over 1 µM.

The molecule `O=C(Nc1ccc(Nc2ncc(-c3cn[nH]c3)n3ccnc23)cn1)c1ccccc1` [Compound 183, N-{5-[5-(1H-Pyrazol-4-yl)imidazopyrazin-8-ylamino]pyridin-2-yl}benzamide] yielded a concentration for half-maximal inhibition (IC50) in test [1] of over 1 µM. Moreover, the concentration for a half-maximal effect (EC50) in test [2] lay in the range of 0.101 to 0.5 µM.

In turn, `NC(=O)c1ccc(-c2cnc(Nc3cccnc3)c3nccn23)cc1` [Compound 96] yielded an IC50 in test [1] of over 1 µM. In addition, the EC50 in test [2] is over 1 µM.

Molecule `CCN(CC)CCNC(=O)c1ccc(Nc2ncc(-c3ccc(C(N)=O)cc3)n3ccnc23)cc1` [Compound 46] had a half-maximal inhibitory concentration (IC50) in test [1] of over 1 µM. In addition, in test [2], the EC50 is over 1 µM.

As to `NCc1cccc(CNC(=O)c2ccc(Nc3ncc(-c4cn[nH]c4)n4ccnc34)cc2)c1` [Compound 95], in test [1], the IC50 is over 1 µM. For the same molecule, the EC50 in test [2] fell in the range of 0.101 to 0.5 µM.

Turning to `CN1CCN(C(=O)c2ccc(Nc3ncc(-c4cn[nH]c4)n4ccnc34)cc2)CC1` [Compound 57], the IC50 in test [1] lay in the range of 0.101 to 0.5 µM. The EC50 in test [2] was over 1 µM.

Take `Cc1cc(-c2cnc(Nc3ccc(N4CCOCC4)cc3)c3nccn23)cc(=O)[nH]1` [Compound 174, 6-Methyl-4-[8-(4-morpholin-4-ylphenylamino)-imidazo[1,2-a]pyrazin-5-yl]-1H-pyridin-2-one]: in test [1], the 50% inhibitory concentration (IC50) was over 1 µM. Also, the EC50 in test [2] lay in the range of 0.101 to 0.5 µM.

Molecule `Nc1cc(C(=O)O)ccc1-c1cnc(Nc2ccc(N3CCOCC3)cc2)c2nccn12` [Compound 40] showed an IC50 in test [1] of over 1 µM. The EC50 in test [2] was over 1 µM.

For `Nc1ccc(Nc2ncc(-c3cn[nH]c3)n3ccnc23)cc1` [Compound 15], the IC50 in test [1] was over 1 µM. For the same molecule, in test [2], the EC50 is over 1 µM.

For `NC(=O)CN1CCC(c2ccc(Nc3ncc(-c4ccc5c(c4)CNC5=O)n4ccnc34)cc2)CC1` [Compound 226, 2-(4-{4-[5-(1-Oxo-2,3-dihydro-1H-isoindol-5-yl)-imidazo[1,2-a]pyrazin-8-ylamino]-phenyl}piperidin-1-yl)acetamide], the concentration for half-maximal inhibition (IC50) in test [1] is 0.101 to 0.5 µM. The EC50 in test [2] was over 1 µM.

In turn, `NC(=O)c1cc(-c2cnc(Nc3ccc(C4CCN(CC(F)(F)F)CC4)cc3)c3nccn23)cs1` [Compound 194] returned an IC50 in test [1] of over 1 µM. Besides, the EC50 in test [2] lay within 0.501 to 1 µM.

Turning to `Cc1n[nH]cc1-c1cnc(Nc2ccc(C3CCN(CC(N)=O)CC3)cc2)c2nccn12` [Compound 225, 2-(4-{4-[5-(3-Methyl-1H-pyrazol-4-yl)imidazo[1,2-a]pyrazin-8-ylamino]phenyl}piperidin-1-yl)acetamide], the half-inhibitory concentration (IC50) in test [1] fell in the range of 0.501 to 1 µM. In test [2], the EC50 is over 1 µM.

The molecule `CN1CCN(c2ccc(Nc3ncc(-c4cncc(C(N)=O)c4)n4ccnc34)cc2)CC1` [Compound 121, 5-{8-[4-(4-Methyl-piperazin-1-yl)-phenylamino]-imidazo[1,2-a]pyrazin-5-yl}-nicotinamide] displayed a 50% inhibitory concentration (IC50) in test [1] of over 1 µM. In test [2], the EC50 was over 1 µM.

As for `NC(=O)c1ccc(Nc2ncc(-c3ccc(C(=O)O)cc3)n3ccnc23)cc1` [Compound 52], in test [1], the IC50 is over 1 µM. The EC50 in test [2] was over 1 µM.

`COc1cccc(Nc2ncc(-c3cn[nH]c3)n3ccnc23)c1` [Compound 16] displayed an IC50 in test [1] of over 1 µM. The EC50 in test [2] is over 1 µM.

Take `O=C(NCCc1c[nH]c2ccccc12)c1ccc(Nc2ncc(-c3cn[nH]c3)n3ccnc23)cc1` [Compound 94]: in test [1], the IC50 lay in the range of 0.501 to 1 µM. Moreover, in test [2], the EC50 is over 1 µM.

On to `CCN(CC)CCNC(=O)c1ccc(Nc2ncc(-c3cnc(O)nc3O)n3ccnc23)cc1` [Compound 80], for which, in test [1], the IC50 is over 1 µM. For the same molecule, in test [2], the half-maximal effective concentration (EC50) was over 1 µM.

As usually defined, the IC50 is the point on the concentration scale where inhibition reaches its midpoint. A lower IC50 goes with greater potency. The term EC50 denotes the midpoint of the concentration-response curve.
